Assay results published in PubChem BioAssay (NCI).
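A five-concentration, 48-hour dose response in 96-well plates underlies each endpoint, interpolated linearly between surrounding concentrations. The concentration for full growth arrest is given as TGI.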

Columns and labels:
Assay in all cases: inhibition of tumour cell growth, NCI panel, 48 h
[1] = system: HT29 colon
[2] = system: UACC-257 melanoma
[3] = system: SF-539 CNS
[4] = system: MCF7 breast
[5] = system: SK-MEL-5 melanoma
[6] = system: HCC-2998 colon
[7] = system: ACHN renal
[8] = system: K-562 leukemia
[9] = system: HCT-116 colon
[10] = system: U251 CNS
[11] = system: RPMI-8226 leukemia

Row | Structure (SMILES) | TGI [1] [µM] | TGI [2] [µM] | TGI [3] [µM] | TGI [4] [µM] | TGI [5] [µM] | TGI [6] [µM] | TGI [7] [µM] | TGI [8] [µM] | TGI [9] [µM] | TGI [10] [µM] | TGI [11] [µM]
1 | C/C(CC(O)(C(F)(F)F)C(F)(F)F)=N\N | > 10 | > 10 | > 10 | > 10 | > 10 | > 10 | > 10 | > 10 | > 10 | > 10 | > 10
2 | COCCc1c(C)c(C#N)c2n(C)c3ccccc3n2c1=O | > 10 | > 10 | > 10 | > 10 | > 10 | > 10 | > 10 | > 10 | > 10 | > 10 | > 10
3 | COc1cc(/C=C2\C(=O)N(c3cccc(Cl)c3)C(c3ccccc3)S2(=O)=O)cc(OC)c1OC (stereo not drawn) | > 100 | > 100 | > 100 | > 100 | > 100 | > 100 | > 100 | > 100 | > 100 | > 100 | 80.1
4 | ON=C1CCCCC(=NO)CCCC1 | > 100 | > 100 | > 100 | > 100 | > 100 | > 100 | > 100 | > 100 | > 100 | > 100 | > 100
5 | CCN(CC)CCn1ncc2ccc3c(c(=O)c4cccnc4n3CCN(CC)CC)c21 | 3.13 | 3.95 | 1.95 | 4.62 | 2.38 | 2.14 | > 10 | 3.33 | > 5.81 | 6.82 | 4.21
6 | COc1cc2c(cc1C)NC(=O)/C2=C/c1c(Cl)[nH]c2cc(C)c(OC)cc12 | 17.6 | 23.7 | 1.33 | 20.4 | 10.6 | 11 | 18.4 | > 41.6 | 18.1 | 15.3 | > 48.9
7 | O=C(CSc1nc2ccc(I)cc2c(=O)n1Cc1ccccc1)N/N=C/c1ccccc1 | > 100 | > 100 | > 100 | > 100 | > 100 | > 100 | > 100 | > 100 | > 100 | 33.3 | > 100
8 | O=C(ON=c1c2ccccc2ccc2ccccc12)c1cc([N+](=O)[O-])cc([N+](=O)[O-])c1 | > 100 | > 100 | > 100 | > 100 | > 100 | > 100 | > 100 | > 100 | > 100 | > 100 | > 100
9 | CCOC(=O)C(Cc1ccc2c(c1)CCC2)(Cc1ccc2c(c1)CCC2)C(=O)OCC | > 100 | > 100 | > 100 | > 100 | > 100 | > 100 | > 100 | > 100 | > 100 | > 100 | > 100
10 | COc1cc(Cn2c3c(c4c(CN(C)C)c(O)ccc42)C(=O)c2ccccc2C3=O)cc(OC)c1 | > 100 | 55.7 | 29.8 | 29.4 | 26 | 34.5 | 29.6 | 36.8 | 31.1 | 36.8 | 41.5
11 | CCCCc1ccc(Nc2nc3c(ncn3C3OC(COC(C)=O)C(OC(C)=O)C3OC(C)=O)c(=O)[nH]2)cc1 (stereo not drawn) | 37.5 | 34.3 | 57.9 | 63.2 | 31.1 | 35.5 | > 100 | 38.5 | 31.9 | 45.4 | 48.9
12 | CC(C)(C)OC(=O)N1C(C2=COc3ccccc3O2)=COc2ccccc21 | > 100 | 78 | 41.2 | 60.2 | 64.4 | 37.2 | 75.3 | 57 | 72.7 | > 100 | 43.5
13 | CC(=O)OCC1C(C(C)OC(C)=O)CCC2C1CCC1(C)C(OC(C)=O)CCC21 (stereo not drawn) | 32.8 | 31.9 | 32.6 | 33.8 | 30.6 | 33.5 | 28.3 | 36.8 | 29.2 | 30.5 | 69.9
14 | CCOC(=O)c1ccc(N=C2SC(=S)N(c3ccc(F)cc3)C2=Nc2ccc(C(=O)OCC)cc2)cc1 | 51.6 | 37.4 | 42.7 | 42.2 | 25.1 | > 80.5 | 29.4 | 47.3 | 41.6 | 44.2 | 51.3
15 | O=[N+]([O-])c1cc2n[nH]nc2c2nonc12 | > 100 | 63 | 56 | 21.5 | 24.7 | 38.7 | 67.6 | > 100 | 43.7 | > 100 | > 100
16 | Oc1c(C(O)(c2ccccc2)c2ccc3ccccc3c2O)ccc2ccccc12 | 33 | 23.4 | 36.1 | 24 | 18 | 20 | 23.3 | 15.7 | 21.8 | 21.8 | 5.32
17 | Nc1[nH]c(=O)nc2sc3c(c12)CCCC3 | > 100 | > 100 | > 100 | > 100 | > 100 | > 100 | > 100 | > 100 | > 100 | > 100 | > 100
18 | NS(=O)(=O)c1nnc(NC(=O)CCC(=O)O)s1 | > 100 | > 100 | > 100 | > 100 | > 100 | > 100 | > 100 | > 100 | > 100 | > 100 | > 100
19 | CC1=NN(c2nc(N)nc(CS(C)(=O)=O)n2)C(C)(C)C1 | > 100 | > 100 | > 100 | > 100 | > 100 | > 100 | > 100 | > 100 | > 100 | > 100 | > 100
20 | O=C1CCc2c3c(c4c([nH]c5ccccc54)c2CC1)C(=O)NC3=O | 12.1 | 19.5 | > 100 | 81 | 5.77 | > 100 | 24.7 | > 100 | > 100 | > 100 | 64.1
21 | Cn1c(-c2ccccc2)cc(-c2ccc3c(c2)OCO3)c1-c1cccs1 | > 100 | > 100 | > 100 | > 100 | > 100 | > 100 | > 100 | > 100 | > 100 | > 100 | > 100
22 | CCN(CC)CCN1c2ccccc2Sc2ccc3ccccc3c21 | 12.3 | 21.5 | 29.7 | 23.6 | 10.2 | 6.86 | 29.2 | 15.7 | 22.9 | 22.5 | 10.7
23 | CN1CN(c2ccccc2)C2(CCNCC2)C1=O | > 100 | > 100 | > 100 | > 100 | > 100 | > 100 | > 100 | > 100 | > 100 | > 100 | > 100
24 | Cc1csc2c(P(=O)(OC(C)C)OC(C)C)c(-c3ccccc3)cn12 | 29.2 | 27.8 | 32.9 | 34.3 | 29.7 | 28.5 | 28.3 | 45.7 | 27.4 | 29.5 | 40.7
25 | CCOC(=O)C(SCCO)C(C(=O)OCC)n1ccc(N)nc1=O (stereo not drawn) | > 100 | > 100 | > 100 | > 100 | > 100 | > 100 | > 100 | > 100 | > 100 | > 100 | > 100
26 | COc1ccc(C2CCc3nc4nc(N)nc(N)c4cc3C2)cc1 (stereo not drawn) | 94.3 | > 100 | 30.9 | 28.8 | > 100 | > 100 | 22 | > 100 | > 100 | 29.4 | > 100
27 | Cc1c2c(c(C)c3c[n+](C)ccc13)Oc1ccccc1O2 | 68.2 | 25.9 | 22.4 | > 63 | 42.5 | 19.8 | > 100 | 35.4 | > 67.9 | 22.3 | 12.7
28 | COC(=O)C12CCC(C(=O)OC)(Cc3c(c4ccccc4n3S(=O)(=O)c3ccccc3)C1)C2=O (stereo not drawn) | > 81 | > 100 | > 67.3 | > 100 | > 100 | > 100 | > 100 | > 100 | > 26.5 | > 100 | > 100
